# Data from patent US11572341B2, “Biguanide compound and use thereof” (ImmunoMet Therapeutics Inc., priority 2014, dated 2023).
# Structures can show the parent of a compound that is named as a salt.
# Legend:
# HCT116 cells = experiment: Inhibitory effect against cancer cell proliferation (MTT); format: cell-based, human; details: Homo sapiens, HCT-116; HCT116, MTT, 48 hours; read-out: IC50 (uM) @ HCT116
# Description: The formazane crystals thus formed were dissolved using dimethyl sulfoxide (DMSO) and absorbance of the solution was measured at 560 nm. After culturing for 48 hours, […] synthesized in Examples was indicated as cell viability (%) according to each treated concentration.
# AMPKa [pT172] = experiment: AMPKa activation [pT172] in MCF7 cell; format: cell-based
IC50 (HCT116 cells),Compound,AMPKa activation [pT172] (Unit/ml) @ MCF7 cell (AMPKa [pT172]; 5 uM),AMPKa activation [pT172] (Unit/ml) @ MCF7 cell (AMPKa [pT172]; 10 uM),AMPKa activation [pT172] (Unit/ml) @ MCF7 cell (AMPKa [pT172]; 50 uM)
8.2 µM,"C/N=C(\NCc1ccccc1)NC(=N)N(C)C [Example 96, N1-benzyl-N2-methyl-N5,N5-dimethyl Biguanide Hydrochloride]",,,
,CC1CC(=O)N=C(NC(=N)N)N1.Cl (stereo not shown) [Example 164],2.89 Unit/ml,3.43 Unit/ml,2.77 Unit/ml
> 100 µM,"CN1CCN(C(=N)NC(=N)NCc2cccc(Cl)c2)CC1.Cl [Example 35, N1-(4-methyl)piperazin-N5-3-chloro)benzyl Biguanide Hydrochloride]",,,
,"CC(C)C1CC(=O)N=C(NC(=N)N2CCCCC2)N1.Cl (stereo not shown) [Example 159, N-(6-isopropyl-4-oxo-1,4,5,6-tetrahydropyrimidin-2-yl)piperidin-1-carboximidamide Hydrochloride]",2.17 Unit/ml,2.35 Unit/ml,3.02 Unit/ml
,CCOC1CCN(C(=N)NC(=N)Nc2cccc(OC(F)(F)F)c2)CC1.Cl [Example 25],5.8 Unit/ml,7.0 Unit/ml,cell death
23.7 µM,"Cl.N=C(NCc1ccc(OC(F)(F)F)cc1)NC(=N)Nc1cccnc1 [Example 42, Hydrochloride]",,,
,"CN(C)/C(=N\Cc1ccc(F)cc1)NC(=N)N1CCCCC1.Cl [Example 93, N1,N1-dimethyl-N2-(4-fluoro)benzyl-N5-piperidine Biguanide Hydrochloride]",,,6.6 Unit/ml
,"CC1CN=C(NC(=N)N2CCCCC2)NC1.Cl (stereo not shown) [Example 158, N-(5-methyl-1,4,5,6-tetrahydropyrimidin-2-yl)piperidin-1-carboximidamide Hydrochloride]",3.11 Unit/ml,2.49 Unit/ml,3.75 Unit/ml
,CC1(C)CC(=O)N=C(NC(=N)N)N1.Cl [Example 152],7.9 Unit/ml,8.1 Unit/ml,8.6 Unit/ml
,"Cl.N=C(NC(=N)N1CCCCC1)N1CCCCC1 [Example 2, N1-piperidin-N5-piperidine Biguanide Hydrochloride]",,,4.9 Unit/ml
,CN1CCN(C(=N)NC(=N)NCc2cccc(Cl)c2)CC1.Cl [Example 35],5.0 Unit/ml,4.2 Unit/ml,3.4 Unit/ml
,"CNC(=N)NC(=N)N.Cl [Example 108, N1-methyl Biguanide Hydrochloride]",,,3.9 Unit/ml
,Cl.N=C(NCCc1ccc(Cl)cc1)NC(=N)N1CCCCC1 [Example 13],,,7.0 Unit/ml
,"Cl.N=C(NCc1ccc2c(c1)OCO2)NC(=N)N1CCCCC1 [Example 9, N1-piperidin-N5-(benzo[d][1,3]dioxol-5-yl)methyl Biguanide Hydrochloride]",,,16.3 Unit/ml
,"CN(C)C(=N)NC(=N)NCc1ccc2c(c1)OCO2.Cl [Example 4, N1,N1-dimethyl-N5-(benzo[d][1,3]dioxol-5-yl)methyl Biguanide Hydrochloride]",,,3.8 Unit/ml
> 100 µM,"CN1CCN(C(=N)NC(=N)Nc2ccc(Cl)cc2)CC1.Cl [Example 27, N1-(4-methyl)piperazin-N5-4-chloro)phenyl Biguanide Hydrochloride]",,,
,CN1CCN(C(=N)NC(=N)Nc2ccc(F)c(F)c2)CC1.Cl [Example 38],5.9 Unit/ml,5.1 Unit/ml,6.4 Unit/ml
,CC1CCN(C(=N)NC(=N)Nc2ccc(Cl)cc2)CC1.Cl [Example 55],3.5 Unit/ml,5.3 Unit/ml,cell death
,"CCCC1CC(=O)N=C(NC(=N)N2CCCCC2)N1.Cl (stereo not shown) [Example 163, N-(6-propyl-4-oxo-1,4,5,6-tetrahydropyrimidin-2-yl)piperidin-1-carboximidamide Hydrochloride]",4.07 Unit/ml,3.76 Unit/ml,4.48 Unit/ml
,"Cl.N=C(NC1=NC(=O)CC(C2CC2)N1)N1CCCCC1 (stereo not shown) [Example 157, N-(6-cyclopropyl-4-oxo-1,4,5,6-tetrahydropyrimidin-2-yl)piperidin-1-carboximidamide Hydrochloride]",4.17 Unit/ml,2.68 Unit/ml,2.00 Unit/ml
,CN1CCN(C(=N)NC(=N)Nc2ccc(Cl)cc2)CC1.Cl [Example 27],9.8 Unit/ml,8.7 Unit/ml,14.3 Unit/ml
